In patent US5354676A, “Recombinant modified thermostable NAD-dependent dehydrogenases and process for their production” (The University of Bristol, priority 1989, dated 1994):

Assays:
[1] = target: T1, Bacillus stearothermophilus L-lactate dehydrogenase variant MVS/GG (102-5 QKP→MVS and 235-6 AA→GG) (Geobacillus stearothermophilus, UniProt P00344, A222G/A223G/K87V/P88S/Q86M); experiment: biochemical
T1 construct: made in house; host or cells: E. coli TG2, vector pKK223-3
Procedure: (§1) Steady-state reaction rates were determined by following the change in A340 due to the consumption of NADH. […] The buffer for all experiments was 100rmM triethanolamine-HC1/NaOH,pH 6.

[2] = target: T2, Bacillus stearothermophilus L-lactate dehydrogenase variant MVS (102-5 QKP→MVS) (Geobacillus stearothermophilus, UniProt P00344, K87V/P88S/Q86M); experiment: biochemical; settings: pH 6, read-out: stimulation in kcat/Km by FBP
T2 construct: made in house; host or cells: E. coli TG2, vector pKK223-3
T2 sequence (P00344 whole entry Q86M/K87V/P88S): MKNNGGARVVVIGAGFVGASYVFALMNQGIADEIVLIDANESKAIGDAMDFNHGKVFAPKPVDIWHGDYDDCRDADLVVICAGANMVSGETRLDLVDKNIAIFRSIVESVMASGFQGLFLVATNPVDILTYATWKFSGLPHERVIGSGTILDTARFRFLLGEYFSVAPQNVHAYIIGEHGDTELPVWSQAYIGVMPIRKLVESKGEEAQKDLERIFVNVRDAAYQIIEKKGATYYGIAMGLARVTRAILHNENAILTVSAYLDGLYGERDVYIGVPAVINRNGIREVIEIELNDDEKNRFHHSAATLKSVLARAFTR
Procedure: as §1

[3] = target: T3, Bacillus stearothermophilus L-lactate dehydrogenase variant GG (235-6 AA→GG) (Geobacillus stearothermophilus, UniProt P00344, A222G/A223G); experiment: biochemical; settings: pH 6, read-out: stimulation in kcat/Km by FBP
T3 sequence (P00344 whole entry A222G/A223G, the tested form may be a part): as the sequence (P00344 whole entry Q86M/K87V/P88S) above, with M86Q, V87K, S88P, A222G, A223G counted along it
Procedure: as §1

[4] = target: T4, Bacillus stearothermophilus NAD-dependent L-lactate dehydrogenase, wild type (WT) (Geobacillus stearothermophilus, UniProt P00344); experiment: biochemical; settings: pH 6, read-out: stimulation in kcat/Km by FBP
T4 construct: made in house; host or cells: E. coli
T4 sequence (P00344 whole entry): as the sequence (P00344 whole entry Q86M/K87V/P88S) above, with M86Q, V87K, S88P counted along it
Procedure: as §1

[5] = target: T3, Bacillus stearothermophilus L-lactate dehydrogenase variant GG (235-6 AA→GG); settings: No FBP, pH 6
Procedure: as §1

T1 sequence (P00344 whole entry Q86M/K87V/P88S/A222G/A223G, the tested form may be a part): as the sequence (P00344 whole entry Q86M/K87V/P88S) above, with A222G, A223G counted along it

Row | Structure (SMILES) | fold induction at 5000 µM ([1]; pH 6, read-out: stimulation in kcat/Km by FBP) | fold induction at 5000 µM [2] | fold induction at 5000 µM [3] | fold induction at 5000 µM [4] | Km ([1]; MVS/GG, No FBP, pH 6) | Km [5]
1 | O=C(COP(=O)(O)O)[C@@H](O)[C@H](O)[C@H](O)COP(=O)(O)O [FBP, fructose-1,6-bisphosphate] | 16 | 100 | 60 | 50 |  | 
2 | CC(=O)C(=O)O [Pyruvate] |  |  |  |  | > 50 mM | > 50 mM
